Source: PubChem BioAssay (NCI)
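Results reflect a 48-hour exposure of cells in 96-well plates to compound at five concentrations. Definition used: TGI = concentration required for complete inhibition of growth.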

What was measured:
Test in all cases: NCI anticancer screen, dose series, 48 h
[1] = system: OVCAR-4 ovarian
[2] = system: MALME-3M melanoma
[3] = system: NCI-H522 lung
[4] = system: NCI-H226 lung
[5] = system: HOP-92 NSCLC
[6] = system: CAKI-1 renal
[7] = system: KM20L2 colon
[8] = system: NCI-H23 lung
[9] = system: A498 renal
[10] = system: SNB-19 CNS
[11] = system: HOP-62 NSCLC
[12] = system: SNB-78 CNS
[13] = system: TK-10 renal
[14] = system: LXFL 529 NSCLC
[15] = system: A549 NSCLC
[16] = system: DLD-1 colon
[17] = system: SK-MEL-5 melanoma
[18] = system: RPMI-8226 leukemia
[19] = system: UACC-257 melanoma
[20] = system: M19-MEL melanoma
[21] = system: LOX IMVI melanoma
[22] = system: RXF-631 renal
[23] = system: SF-268 CNS
[24] = system: SW-620 colon
[25] = system: RXF 393 renal
[26] = system: CCRF-CEM leukemia
[27] = system: HL-60(TB) leukemia
[28] = system: OVCAR-8 ovarian
[29] = system: HT29 colon
[30] = system: K-562 leukemia
[31] = system: IGROV1 ovarian
[32] = system: SK-MEL-2 melanoma
[33] = system: NCI-H460 lung
[34] = system: DMS 273 small cell lung
[35] = system: MOLT-4 leukemia
[36] = system: U251 CNS
[37] = system: HCT-15 colon
[38] = system: OVCAR-3 ovarian
[39] = system: COLO 205 colon
[40] = system: SK-OV-3 ovarian
[41] = system: 786-0 renal
[42] = system: SNB-75 CNS
[43] = system: UO-31 renal
[44] = system: UACC-62 melanoma
[45] = system: SF-295 CNS
[46] = system: HCC-2998 colon
[47] = system: DMS 114 small cell lung
[48] = system: SF-539 CNS
[49] = system: SK-MEL-28 melanoma
[50] = system: M14 melanoma
[51] = system: KM12 colon
[52] = system: ACHN renal
[53] = system: HCT-116 colon
[54] = system: SN12C renal
[55] = system: OVCAR-5 ovarian
[56] = system: EKVX NSCLC
[57] = system: HOP-18 NSCLC

Measured: TGI

S=c1nc(COc2ccc(Cl)cc2)[nH][nH]1
not listed: [56] | [57]
> 100 µM: all other assays above

NC(CCCNCc1ccccc1)C(=O)O (stereo unspecified)
not listed: [12] | [25] | [36] | [45] | [46] | [55]
> 100 µM: all other assays above
